Experimental data reported in patent US20240254087A1, “SELECTIVE, PARTIAL, AND ARRESTIN-BIASED 5-HT2A AGONISTS WITH UTILITY IN VARIOUS DISORDERS” (Saint Joseph's University, priority 2021, published 2024).
Structures can show the parent of a compound that is named as a salt.

Key:
[1] = biological target: T1, 5-HT2B (Homo sapiens, UniProt P41595); experiment: Ca2+ flux assay, 5-HT2B; format: cell-based; set-up: expressed in transfected cells; conditions: Ca2+ flux; for Emax: read-out: 5-HT2B Emax % 5-HT
T1 sequence (P41595 whole entry): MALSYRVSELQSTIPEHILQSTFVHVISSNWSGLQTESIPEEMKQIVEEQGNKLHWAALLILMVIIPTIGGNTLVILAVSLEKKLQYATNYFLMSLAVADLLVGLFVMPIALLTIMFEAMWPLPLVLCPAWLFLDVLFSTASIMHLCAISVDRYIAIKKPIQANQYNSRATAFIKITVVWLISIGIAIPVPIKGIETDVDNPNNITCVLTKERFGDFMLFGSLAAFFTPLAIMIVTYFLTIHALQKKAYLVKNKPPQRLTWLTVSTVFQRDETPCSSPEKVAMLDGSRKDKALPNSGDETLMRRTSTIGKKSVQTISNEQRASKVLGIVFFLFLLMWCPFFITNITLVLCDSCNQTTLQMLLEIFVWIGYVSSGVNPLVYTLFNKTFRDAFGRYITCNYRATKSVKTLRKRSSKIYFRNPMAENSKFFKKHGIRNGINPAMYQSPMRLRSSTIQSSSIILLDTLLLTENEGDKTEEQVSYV
Protocol: (§1) Cell lines were maintained in DMEM containing 10% FBS, 10 μg/mL Blasticidin (Invivogen), and 100 μg/mL Hygromycin B (GoldBio). At least 20-24 hours before the assay, receptor expression was induced with tetracycline ([…]) and cells were seeded into 384-well poly-L-lysine-coated black plates at a density of 7,500 cells/well in DMEM containing 1% dialyzed FBS. On the day of the assay, the cells were incubated for 1 h at 37° C. with Fluo-4 Direct dye (Invitrogen, 20 μl/well) reconstituted in drug buffer (20 mM HEPES-buffered HBSS, pH 7.4) containing 2.5 mM probenecid. Drug dilutions were prepared at 5X final concentration in McCorvy buffer (20 mM HEPES-buffered HBSS, 0).1% BSA, 0.01% ascorbic acid pH 7.4). After dye load, cells were allowed to equilibrate to room temperature for 15 minutes, and then placed in a FLIPR^TETRA fluorescence imaging plate reader (Molecular Devices). Fluorescence for the FLIPR^TETRA were programmed to read baseline fluorescence for 10 s (1 read/s), and afterward 5 μl of drug per well was added and read for a total of 5-10 min (1 read/s). Fluorescence in each well was normalized to the average of the first 10 reads for baseline fluorescence, and then either maximum-fold peak increase over basal or area under the curve (AUC) was calculated. […] Data was plotted and non-linear regression was performed using “log(agonist) vs. response” in Graphpad Prism 8 to yield Emax and EC50 parameter estimates.

[2] = test system: 5-HT2A; experiment: Ca2+ flux assay, 5-HT2A; format: cell-based, human; conditions: Gq/11 Ca2+ mobilization; higher number = skewed towards 5-HT2A
Protocol: as §1

[3] = biological target: T2, 5-HT2C (Homo sapiens, UniProt P28335); experiment: Competitive radioligand binding (NIMH PDSP); set-up: expressed in transfected cells
T2 sequence (P28335 33-458): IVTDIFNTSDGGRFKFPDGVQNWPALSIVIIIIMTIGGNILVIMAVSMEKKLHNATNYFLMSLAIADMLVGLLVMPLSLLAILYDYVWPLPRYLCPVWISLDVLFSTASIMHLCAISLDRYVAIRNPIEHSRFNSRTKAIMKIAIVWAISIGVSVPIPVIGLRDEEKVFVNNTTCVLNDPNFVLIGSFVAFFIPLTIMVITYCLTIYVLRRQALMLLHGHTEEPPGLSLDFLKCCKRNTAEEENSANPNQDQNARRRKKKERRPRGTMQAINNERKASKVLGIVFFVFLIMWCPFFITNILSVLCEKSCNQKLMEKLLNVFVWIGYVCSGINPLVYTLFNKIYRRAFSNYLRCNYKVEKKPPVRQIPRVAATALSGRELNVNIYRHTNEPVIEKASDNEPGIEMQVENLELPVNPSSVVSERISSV
Protocol: (§2) Method 1: Competitive binding experiments were performed by the National Institute of Mental Health Psychoactive Drug Screening Program (NIMH PDSP) using described methods or 5-HT2A experiments performed using [3H]-ketanserin displacement in human 5-HT2A expressing membranes. Target compounds were dissolved in DMSO and an initial screen performed to assess displacement of the radioligand from target receptors at a concentration of 10,000 nM. […] For the Ki experiments, compounds were always tested in triplicate on separate plates. Each plate also contained a known ligand for the receptor as a positive control.

[4] = biological target: T1, 5-HT2B; experiment: Competitive radioligand binding (NIMH PDSP); set-up: expressed in transfected cells
Protocol: as §2

[5] = biological target: T2, 5-HT2C; experiment: Ca2+ flux assay, 5-HT2C; format: cell-based; set-up: expressed in transfected cells; conditions: for Emax: read-out: 5-HT2C Emax % 5-HT
Protocol: as §1

[6] = biological target: T3, 5-HT2A (Homo sapiens, UniProt P28223); experiment: Ca2+ flux assay, 5-HT2A; format: cell-based; set-up: expressed in transfected cells; conditions: for EC50: 5-HT2A EC50, nM, Ca2+ flux; for Emax: read-out: 5-HT2A Emax % 5-HT, Ca2+ flux
T3 sequence (P28223 whole entry): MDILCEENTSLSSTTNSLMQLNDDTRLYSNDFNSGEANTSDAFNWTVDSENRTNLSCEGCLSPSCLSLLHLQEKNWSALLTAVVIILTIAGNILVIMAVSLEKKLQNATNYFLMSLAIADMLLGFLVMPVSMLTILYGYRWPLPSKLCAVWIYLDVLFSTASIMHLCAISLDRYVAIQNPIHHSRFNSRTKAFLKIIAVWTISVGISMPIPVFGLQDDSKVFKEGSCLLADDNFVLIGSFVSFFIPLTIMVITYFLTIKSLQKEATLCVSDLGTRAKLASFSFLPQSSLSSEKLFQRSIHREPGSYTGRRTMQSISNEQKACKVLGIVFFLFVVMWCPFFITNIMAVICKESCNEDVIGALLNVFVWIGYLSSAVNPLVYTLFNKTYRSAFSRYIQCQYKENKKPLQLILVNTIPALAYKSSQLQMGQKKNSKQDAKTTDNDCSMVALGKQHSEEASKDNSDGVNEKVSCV
Protocol: as §1

[7] = biological target: 5-HT1e (Homo sapiens, UniProt P28566); experiment: Competitive radioligand binding (NIMH PDSP)
Sequence of 5-HT1e (P28566 whole entry, species assumed): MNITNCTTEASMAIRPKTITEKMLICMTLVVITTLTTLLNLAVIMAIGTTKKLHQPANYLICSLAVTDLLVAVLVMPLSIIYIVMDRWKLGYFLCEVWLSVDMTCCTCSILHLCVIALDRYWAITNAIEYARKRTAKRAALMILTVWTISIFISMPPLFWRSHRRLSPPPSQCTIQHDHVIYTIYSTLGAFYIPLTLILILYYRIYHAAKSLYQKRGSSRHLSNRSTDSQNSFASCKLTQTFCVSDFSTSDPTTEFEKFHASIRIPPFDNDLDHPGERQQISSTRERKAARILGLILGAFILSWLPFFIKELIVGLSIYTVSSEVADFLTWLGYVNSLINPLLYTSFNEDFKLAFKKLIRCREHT
Protocol: as §2

[8] = biological target: T4, 5-HT3 (Homo sapiens, UniProt P46098); experiment: Competitive radioligand binding (NIMH PDSP)
T4 sequence (P46098 24-478): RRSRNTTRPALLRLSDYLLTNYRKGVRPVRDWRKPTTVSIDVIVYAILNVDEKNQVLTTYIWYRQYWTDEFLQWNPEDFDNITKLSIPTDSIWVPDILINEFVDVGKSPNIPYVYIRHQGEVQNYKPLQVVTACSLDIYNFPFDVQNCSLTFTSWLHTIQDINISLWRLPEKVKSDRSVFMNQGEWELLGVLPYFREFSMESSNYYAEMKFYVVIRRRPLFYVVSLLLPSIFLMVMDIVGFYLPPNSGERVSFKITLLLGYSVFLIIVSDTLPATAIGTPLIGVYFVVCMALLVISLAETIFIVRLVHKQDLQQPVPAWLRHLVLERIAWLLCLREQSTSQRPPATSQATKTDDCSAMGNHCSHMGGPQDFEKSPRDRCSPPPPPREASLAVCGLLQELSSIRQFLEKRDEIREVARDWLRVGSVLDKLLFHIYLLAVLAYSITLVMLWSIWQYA
Protocol: as §2

[9] = biological target: T3, 5-HT2A; experiment: Competitive radioligand binding (NIMH PDSP)
Protocol: as §2

[10] = biological target: T5, 5-HT1A (Homo sapiens, UniProt P08908); experiment: Competitive radioligand binding (NIMH PDSP)
T5 sequence (P08908 1-422): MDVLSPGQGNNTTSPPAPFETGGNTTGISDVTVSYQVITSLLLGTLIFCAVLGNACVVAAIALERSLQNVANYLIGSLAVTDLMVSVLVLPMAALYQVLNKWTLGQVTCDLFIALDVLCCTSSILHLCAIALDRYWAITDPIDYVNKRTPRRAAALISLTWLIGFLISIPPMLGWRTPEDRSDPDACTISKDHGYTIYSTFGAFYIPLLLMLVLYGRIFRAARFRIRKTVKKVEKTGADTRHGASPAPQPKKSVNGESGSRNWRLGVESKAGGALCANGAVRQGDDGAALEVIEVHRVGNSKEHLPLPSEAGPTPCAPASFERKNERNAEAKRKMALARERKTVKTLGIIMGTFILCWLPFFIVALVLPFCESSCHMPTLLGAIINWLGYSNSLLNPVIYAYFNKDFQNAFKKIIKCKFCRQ
Protocol: as §2

[11] = biological target: 5-HT1B (Homo sapiens, UniProt P28222); experiment: Competitive radioligand binding (NIMH PDSP)
Sequence of 5-HT1B (P28222 whole entry, species assumed): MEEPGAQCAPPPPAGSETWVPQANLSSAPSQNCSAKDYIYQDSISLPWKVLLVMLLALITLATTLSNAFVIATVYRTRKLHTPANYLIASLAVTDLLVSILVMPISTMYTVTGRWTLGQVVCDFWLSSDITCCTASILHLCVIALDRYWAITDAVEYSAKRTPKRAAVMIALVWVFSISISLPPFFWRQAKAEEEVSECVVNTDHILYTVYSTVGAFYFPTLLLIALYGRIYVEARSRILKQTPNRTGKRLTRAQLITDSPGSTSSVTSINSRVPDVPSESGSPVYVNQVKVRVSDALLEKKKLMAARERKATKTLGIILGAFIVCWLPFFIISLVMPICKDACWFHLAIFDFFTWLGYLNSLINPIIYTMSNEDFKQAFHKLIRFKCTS
Protocol: as §2

[12] = biological target: 5-HT1D (Homo sapiens, UniProt P28221); experiment: Competitive radioligand binding (NIMH PDSP)
Sequence of 5-HT1D (P28221 whole entry, species assumed): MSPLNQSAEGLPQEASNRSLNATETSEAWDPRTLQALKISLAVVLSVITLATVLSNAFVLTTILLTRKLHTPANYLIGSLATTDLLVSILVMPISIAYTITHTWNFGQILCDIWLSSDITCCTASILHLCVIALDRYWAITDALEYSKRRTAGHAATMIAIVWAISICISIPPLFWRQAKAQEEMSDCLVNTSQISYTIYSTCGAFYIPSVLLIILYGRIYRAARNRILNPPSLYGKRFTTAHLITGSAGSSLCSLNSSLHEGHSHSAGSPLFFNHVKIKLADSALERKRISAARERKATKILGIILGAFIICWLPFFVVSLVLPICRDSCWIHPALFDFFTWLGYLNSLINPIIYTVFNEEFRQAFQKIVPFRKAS
Protocol: as §2

[13] = biological target: T3, 5-HT2A; experiment: cell-based; set-up: expressed in transfected cells; host or cells: HEK293T, transient
[14] = biological target: T3, 5-HT2A; experiment: [3H]-ketanserin displacement, 5-HT2A membranes; format: binding; set-up: ES-313-M400UA (membranes); host or cells: CHO-K1; conditions: [3H]-ketanserin displacement (n = 2); read-out: 5-HT2A pKi Mean ± SEM (converted)
[15] = biological target: T3, 5-HT2A; experiment: cell-based; set-up: expressed in transfected cells; host or cells: HEK293T, transient; remark: listed apart in the source

Compound: COc1cc([N+](=O)[O-])c(OC)cc1CCNCc1ccccc1O (as salt: HCl) [25N-NBOH (3), 2-({[2-(2,5-dimethoxy-4-nitrophenyl)ethyl]amino}methyl)phenol]
- melting point: 205 to 206.7 °C

Compound: COc1cc([N+](=O)[O-])c(OC)cc1CCNCc1ccccc1OC (as salt: HCl) [25N-NBOMe (4), [2-(2,5-dimethoxy-4-nitrophenyl)ethyl] [(2-methoxyphenyl)methyl]amine]
- melting point: 166.4 to 167.8 °C

Compound: COc1cc([N+](=O)[O-])c(OC)cc1CCNCc1ccccc1-c1ccccc1 (as salt: HCl) [25N-NBPh (17), ({[1,1′-biphenyl]-2-yl}methyl)[2-(2,5-dimethoxy-4-nitrophenyl)ethyl]amine]
- melting point: 181.5 to 182.5 °C

Compound: COc1cc(CCNCc2cccc3ccccc23)cc(OC)c1Br (as salt: HCl) [(31), 2-(4-bromo-3,5-dimethoxyphenyl)-N-[(naphthalen-1-yl)-methyl]ethan-1-amine]
- melting point: 232.8 to 234.3 °C

Compound: COc1cc(Br)cc(OC)c1CC(C)NCc1cccc2ccccc12 (stereo not drawn) (as salt: HCl) [(33)]
- melting point: 207.9 to 209.2 °C

Compound: COc1cc(Br)c(CCNCc2cccc(C)c2O)cc1OC (as salt: HCl) [(43), 2-(((2-bromo-4,5-dimethoxyphenethyl)-amino)-methyl)-6-methylphenol]
- melting point: 169.4 to 169.9 °C

Compound: COc1cc(OC)c(OC)cc1CCNCc1cccc(I)c1 (as salt: HCl) [(53), N-(3-iodobenzyl)-2-(2,4,5-trimethoxyphenyl)-ethan-1-amine]
- melting point: 155.5 to 156.1 °C

Compound: COc1cc(OC)c(OC)cc1CCNCc1ccccc1-c1cccs1 (as salt: HCl) [(59), N-(2-(thiophen-2-yl)benzyl)-2-(2,4,5-trimethoxyphenyl)-ethan-1-amine]
- melting point: 158.4 to 159.8 °C

Compound: COc1cc([N+](=O)[O-])c(OC)cc1CCNCc1cccc(F)c1 [25N-NB-3-F (24), [2-(2,5-dimethoxy-4-nitrophenyl)ethyl][(3-fluorophenyl)methyl]amine]
- 5-HT2B EC50, nM [1]: No activity
- Emax [1]: < 10%
- 5-HT2A/5-HT2c Selectivity Factor ΔLog(Emax/EC50) [2]: 154.4
- Ki [3]: 224 nM
- Ki [4]: 42.7 nM
- EC50 ([5]; 5-HT2C EC50, nM): 149 nM
- Emax [5]: 54 ± 1%
- EC50 [6]: 2.25 nM
- Emax [6]: 85 ± 2%
- Ki [7]: > 10000 nM
- Ki [8]: > 10000 nM
- Ki [9]: 3.02 nM
- Ki [10]: > 10000 nM
- Ki [11]: > 10000 nM
- Ki [12]: > 10000 nM

Compound: COc1cc([N+](=O)[O-])c(OC)cc1CCNCc1ccc(F)cc1 [25N-NB-4-F (25), [2-(2,5-dimethoxy-4-nitrophenyl)ethyl][(4-fluorophenyl)methyl]amine]
- 5-HT2B EC50, nM [1]: No activity
- Emax [1]: < 10%
- 5-HT2A/5-HT2c Selectivity Factor ΔLog(Emax/EC50) [2]: 43.3
- Ki [3]: 813 nM
- Ki [4]: 85.1 nM
- EC50 ([5]; 5-HT2C EC50, nM): 413 nM
- Emax [5]: 21 ± 2%
- EC50 [6]: 19.7 nM
- Emax [6]: 48 ± 2%
- Ki [7]: > 10000 nM
- Ki [8]: > 10000 nM
- Ki [9]: 6.17 nM
- Ki [10]: > 10000 nM
- Ki [11]: > 10000 nM
- Ki [12]: > 10000 nM

Compound: COc1cc([N+](=O)[O-])c(OC)cc1CCNCc1ccc(C)cc1 [25N-NB-4-Me (23), [2-(2,5-dimethoxy-4-nitrophenyl)ethyl] [(4-methylphenyl)methyl]amine]
- 5-HT2B EC50, nM [1]: No activity
- Emax [1]: < 10%
- 5-HT2A/5-HT2c Selectivity Factor ΔLog(Emax/EC50) [2]: 66.1
- Ki [3]: 631 nM
- Ki [4]: 52.5 nM
- EC50 ([5]; 5-HT2C EC50, nM): 844 nM
- Emax [5]: 14 ± 1%
- EC50 [6]: 38.3 nM
- Emax [6]: 42 ± 3%
- Ki [7]: > 10000 nM
- Ki [8]: > 10000 nM
- Ki [9]: 5.5 nM
- Ki [10]: 2630 nM
- Ki [11]: > 10000 nM
- Ki [12]: > 10000 nM

Compound: COc1cc([N+](=O)[O-])c(OC)cc1CCNCc1cccc2c1OC(F)(F)O2 [25N-NBMDF2 (13), [(2,2-difluoro-2H-1,3-benzodioxol-4-yl)methyl][2-(2,5-dimethoxy-4-nitrophenyl)ethyl]amine]
- 5-HT2B EC50, nM [1]: No activity
- Emax [1]: < 10%
- 5-HT2A/5-HT2c Selectivity Factor ΔLog(Emax/EC50) [2]: 252.5
- Ki [3]: 214 nM
- Ki [4]: 46.8 nM
- EC50 ([5]; 5-HT2C (pEC50 ± SEM)): 437 nM
- EC50 ([5]; 5-HT2C EC50, nM): 431 nM
- Emax [5]: 49 ± 4%
- EC50 [6]: 3.02 nM
- Emax [6]: 86 ± 2%
- Ki [7]: > 10000 nM
- Ki [8]: > 10000 nM
- Ki [9]: 1.2 nM
- Ki [10]: 1000 nM
- Ki [11]: > 10000 nM
- Ki [12]: > 10000 nM

Compound: COc1cc(OC)c(OC)cc1CCNCc1ccc(F)c2ccccc12 [(67)]
- EC50 ([13]; BRET, mean ± SEM, read-out: 5-HT2A Gq dissociation pEC50 (converted)): 22.9 nM
- Emax ([13]; read-out: 5-HT2A Gq Emax (% 5-HT), BRET, mean ± SEM): 41 ± 1.3%
- Ki [14]: 50.1 nM
- EC50 ([15]; BRET, mean ± SEM, read-out: 5-HT2A β-arrestin recruitment pEC50 (converted)): 10.2 nM
- Emax ([15]; read-out: 5-HT2A β-arrestin Emax (% 5-HT), BRET, mean ± SEM): 73.6 ± 3.2%

Compound: COc1cc(OC)c(OC)cc1CCNCc1cccc2ccsc12 [(73), N-(benzo[b]thiophen-7-ylmethyl)-2-(2,4,5-trimethoxyphenyl)-ethan-1-amine]
- Ki [14]: 29.5 nM
